In ChEMBL document CHEMBL1201862, “PubChem BioAssay data set” (2004):
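Following 48 hours of exposure in 96-well plates, responses at five concentrations were used to interpolate endpoints linearly. At the GI50, growth is halved.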 Calls of active or inactive are those of the source. Cut-off read from the data, not from the text of the source: active = GI50 up to about 1.1 µM and inactive = higher.

What was measured:
Assay in all cases: growth of human tumour cells (NCI), 48 h
UACC-62 = system: UACC-62
NCI-H522 = system: NCI-H522
PC-3 = system: PC-3
HOP-92 = system: HOP-92
OVCAR-3 = system: OVCAR-3
SK-MEL-2 = system: SK-MEL-2
SF-539 = system: SF-539
HL-60 = system: HL-60
CAKI-1 = system: CAKI-1
EKVX = system: EKVX
SR = system: SR
A498 = system: A498
MDA-MB-231 = system: MDA-MB-231
COLO 205 = system: COLO 205
K562 = system: K562
UACC-257 = system: UACC-257
NCI-H23 = system: NCI-H23
M14 = system: M14
OVCAR-8 = system: OVCAR-8
SW-620 = system: SW-620
SNB-75 = system: SNB-75
NCI-H460 = system: NCI-H460
U-251 = system: U-251
OVCAR-4 = system: OVCAR-4
SF-295 = system: SF-295
HOP-62 = system: HOP-62
MCF7 = system: MCF7
ACHN = system: ACHN
SK-MEL-28 = system: SK-MEL-28
TK-10 = system: TK-10
SK-OV-3 = system: SK-OV-3
786-0 = system: 786-0
A549 = system: A549
OVCAR-5 = system: OVCAR-5
CCRF-CEM = system: CCRF-CEM
UO-31 = system: UO-31
HCT-15 = system: HCT-15
NCI/ADR-RES = system: NCI/ADR-RES
KM12 = system: KM12
HCC 2998 = system: HCC 2998
HCT-116 = system: HCT-116
RXF 393 = system: RXF 393
IGROV-1 = system: IGROV-1
SK-MEL-5 = system: SK-MEL-5
MDA-MB-435 = system: MDA-MB-435
HT-29 = system: HT-29
Malme-3M = system: Malme-3M
NCI-H226 = system: NCI-H226
SF-268 = system: SF-268
BT-549 = system: BT-549
Hs-578T = system: Hs-578T
SNB-19 = system: SNB-19
MOLT-4 = system: MOLT-4

Compound: COc1ccc2nc(-c3ccc(N)cc3)sc2c1
- GI50 (UACC-62): > 100 µM (inactive)
- GI50 (NCI-H522): 23.6 µM (inactive)
- GI50 (PC-3): 48 µM (inactive)
- GI50 (HOP-92): > 100 µM (inactive)
- GI50 (OVCAR-3): > 100 µM (inactive)
- GI50 (SK-MEL-2): > 100 µM (inactive)
- GI50 (SF-539): > 100 µM (inactive)
- GI50 (HL-60): 47.5 µM (inactive)
- GI50 (CAKI-1): > 100 µM (inactive)
- GI50 (EKVX): 32.1 µM (inactive)
- GI50 (SR): 32.4 µM (inactive)
- GI50 (A498): 53.1 µM (inactive)
- GI50 (MDA-MB-231): 81.8 µM (inactive)
- GI50 (COLO 205): > 100 µM (inactive)
- GI50 (K562): > 100 µM (inactive)
- GI50 (UACC-257): > 100 µM (inactive)
- GI50 (NCI-H23): > 100 µM (inactive)
- GI50 (M14): > 100 µM (inactive)
- GI50 (OVCAR-8): 52.5 µM (inactive)
- GI50 (SW-620): > 100 µM (inactive)
- GI50 (SNB-75): 44.8 µM (inactive)
- GI50 (NCI-H460): 54 µM (inactive)
- GI50 (U-251): 35.6 µM (inactive)
- GI50 (OVCAR-4): > 100 µM (inactive)
- GI50 (SF-295): 43.1 µM (inactive)
- GI50 (HOP-62): 42.2 µM (inactive)
- GI50 (MCF7): > 100 µM (inactive)
- GI50 (ACHN): 51.6 µM (inactive)
- GI50 (SK-MEL-28): > 100 µM (inactive)
- GI50 (TK-10): > 100 µM (inactive)
- GI50 (SK-OV-3): > 100 µM (inactive)
- GI50 (786-0): 43.9 µM (inactive)
- GI50 (A549): 68.1 µM (inactive)
- GI50 (OVCAR-5): > 100 µM (inactive)
- GI50 (CCRF-CEM): 4.89 µM (inactive)
- GI50 (UO-31): 29.4 µM (inactive)
- GI50 (HCT-15): 50.5 µM
- GI50 (NCI/ADR-RES): > 100 µM (inactive)
- GI50 (KM12): 22.3 µM (inactive)
- GI50 (HCC 2998): 42 µM (inactive)
- GI50 (HCT-116): > 100 µM (inactive)
- GI50 (RXF 393): > 100 µM (inactive)
- GI50 (IGROV-1): 70.5 µM (inactive)
- GI50 (SK-MEL-5): 61.4 µM (inactive)
- GI50 (MDA-MB-435): > 100 µM (inactive)
- GI50 (HT-29): 66.5 µM (inactive)
- GI50 (Malme-3M): > 100 µM (inactive)
- GI50 (NCI-H226): 34.2 µM (inactive)
- GI50 (SF-268): 63.2 µM (inactive)
- GI50 (BT-549): > 100 µM (inactive)
- GI50 (Hs-578T): 34.6 µM (inactive)
- GI50 (SNB-19): 18.5 µM (inactive)
- GI50 (MOLT-4): 13.6 µM (inactive)
